Assay results taken from patent US11649477B2, “Assays and reagents for antimicrobial susceptibility testing” (SELUX DIAGNOSTICS, INC., priority 2018, dated 2023).
Converted amounts (≈) assume the structure as drawn.

Experiments:
[1] = system: K. pneumoniae; test: Anionic ratio (growth in colistin vs MHB, Alamar Blue fluorescence); assay type: cell-based; conditions: 4 μg/ml colistin, Ex560/Em590
Description: (§1) P. mirabilis and K. pneumoniae were prepared by diluting colonies into saline to reach a McFarland value of 0.5, which was verified using a spectrophotometer, diluted, and inoculated into 96-well plates containing cation-adjusted Mueller Hinton broth and doubling dilutions of gentamycin (GEN) and ciproflaxin (CIP). Plates were incubated at 35° C., shaking at 150 rpm for 3 hours, after which 10 μl of Alamar Blue were added to each well and plates were incubated for 1 additional hour. After this incubation, Alamar Blue signal was read as the fluorescent signal Ex560/Em590. […] After the final wash, time-resolved fluorescence (TRF) for all wells was read at 330/615 nm.
(§2) The anionic ratios were calculated from the background subtracted fluorescent signal (Ex560/Em590) of bacteria grown in 4 μg/ml colistin divided by the background subtracted fluorescent signal of bacteria grown in MHB. […]

[2] = system: P. mirabilis; test: as above; assay type: cell-based; conditions: 4 μg/ml colistin, Ex560/Em590
Description: as §1, §2

[3] = system: E. coli; conditions: E. coli strain tested; values as generally found; cited from earlier work
[4] = system: S. aureus; test: Rapid AST, vancomycin dilution series read by Eu-cryptate-diamine surface binding (TRF); assay type: cell-based; conditions: Staphylococcus aureus, CTAB pretreatment, CTAB removed before probe, TRF 330/615 nm, read-out: minimum inhibitory concentration (MIC)
Description: S. aureus were prepared by diluting colonies into saline to reach a McFarland value of 0.5, which was verified using a spectrophotometer, diluted, and inoculated into 96-well plates containing cation-adjusted Mueller Hinton broth and doubling dilutions of vancomycin. Plates were incubated at 35° C., shaking at 150 rpm for 3 hours, after which 10 μl of Alamar Blue were added to each well and plates were incubated for 1 additional hour. After this incubation, 100 μl of a 0.03% Cetyltrimethylammonium bromide with 0.1M EDTA solution was added to each well. The plates were placed on a shaker at 450 RPM for 10 minutes, followed by centrifugation at 2500×g for 2.5 minutes. The wells were aspirated and 100 μL PBS with 0.05% Tween-20 (PBST) or 100 μl of a 0.03% Cetyltrimethylammonium bromide with 0.1M EDTA solution was added back into the wells. Ten microliters of Eu-cryptate-diamine (5 ng/well) was added to each well and the plates were shaken for 10 minutes. The plates were then centrifuged, the wells aspirated, and 200 μL 1×PBST were added to each well. These steps were repeated twice. After the final wash, time-resolved fluorescence (TRF) for all wells was read at 330/615 nm.

For colistin, the “anionic ratio (background subtracted fluorescent signal in colistin divided by signal in MHB)” value [1] was −0.08 and the “anionic ratio (background subtracted fluorescent signal in colistin divided by signal in MHB)” value [2] was 0.96.
For `CC[C@H]1OC(=O)[C@H](C)[C@@H](O[C@H]2C[C@@](C)(OC)[C@@H](O)[C@H](C)O2)[C@H](C)[C@@H](O[C@@H]2O[C@H](C)C[C@H](N(C)C)[C@H]2O)[C@](C)(O)C[C@@H](C)CN(C)[C@H](C)[C@@H](O)[C@]1(C)O` [ATM, azithromycin], the MIC values [3] is given as “less than or equal to 0.25 μg/ml”.
Molecule `CN[C@H](CC(C)C)C(=O)N[C@H]1C(=O)N[C@@H](CC(N)=O)C(=O)N[C@H]2C(=O)N[C@H]3C(=O)N[C@H](C(=O)N[C@H](C(=O)O)c4cc(O)cc(O)c4-c4cc3ccc4O)[C@H](O)c3ccc(c(Cl)c3)Oc3cc2cc(c3O[C@@H]2O[C@H](CO)[C@@H](O)[C@H](O)[C@H]2O[C@H]2C[C@](C)(N)[C@H](O)[C@H](C)O2)Oc2ccc(cc2Cl)[C@H]1O` [VAN, vancomycin] has an MIC [4] of 2 µg/mL (≈ 1.38 µM).
